Laboratory results published in US20090036440A1, “NOVEL PYRIMIDINE DERIVATIVES - 816” (AstraZeneca AB, priority 2007, published 2009).

Legend:
recombinant EphB4 = target: T1, recombinant EphB4 (Homo sapiens, UniProt P54760); assay: In vitro EphB4 enzyme assay (Alphascreen); type: biochemical
T1 construct: recombinant active EphB4 (amino acids 563-987; Swiss-Prot Acc; No. P54760); purchased ProQinase GmbH 0178-0000-3
T1 sequence (P54760 563-987): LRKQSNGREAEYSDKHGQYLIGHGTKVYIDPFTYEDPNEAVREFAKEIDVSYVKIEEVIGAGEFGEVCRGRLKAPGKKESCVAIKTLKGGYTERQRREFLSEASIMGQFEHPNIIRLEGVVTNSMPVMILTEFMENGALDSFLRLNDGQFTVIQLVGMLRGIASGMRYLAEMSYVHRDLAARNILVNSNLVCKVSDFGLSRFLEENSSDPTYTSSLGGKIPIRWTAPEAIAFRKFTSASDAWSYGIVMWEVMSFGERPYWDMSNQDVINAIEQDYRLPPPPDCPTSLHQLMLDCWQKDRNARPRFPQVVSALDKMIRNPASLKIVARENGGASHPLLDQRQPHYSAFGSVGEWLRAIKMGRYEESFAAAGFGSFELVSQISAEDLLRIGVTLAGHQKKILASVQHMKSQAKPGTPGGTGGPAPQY
Method: This assay detects inhibitors of EphB4-mediated phosphorylation of a polypeptide substrate using Alphascreen™ luminescence detection technology. Briefly, recombinant EphB4 was incubated with a biotinylated-polypeptide substrate (biotin-poly-GAT) in presence of magnesium-ATP. The reaction was stopped by addition of EDTA, together with streptavidin-coated donor beads which bind the biotin-substrate containing any phosphorylated tyrosine residues. Anti-phosphotyrosine antibodies present on acceptor beads bind to phosphorylated substrate, thus bringing the donor & acceptor beads into close proximity. Subsequent excitation of the donor beads at 680 nm generated singlet oxygen species that interact with a chemiluminescer on the acceptor beads, leading to light emission at 520-620 nm. The signal intensity is directly proportional to the level of substrate phosphorylation and thus inhibition is measured by a decrease in signal.
To ensure that each well contained a total of 120 nl DMSO the wells were all backfilled as required. […] The test range of compounds was 100× the required final concentration.
Assay plates were then incubated at room temperature for 1 hour.
For assays using compounds prepared via acoustic dispensing, the assay mix was adjusted such that the final assay volume of 12 ul contained the same concentration of reagent as 10 ul of assay mix used when aqueous compounds were tested.
The plates were sealed under natural lighting conditions, wrapped in aluminium foil and incubated in the dark for a further 20 hours.
The resulting assay signal was determined on the Perkin Elmer EnVision plate reader. The minimum value was subtracted from all values, and the signal plotted against compound concentration to generate IC50 data. The method used to generate the compound dilutions was recorded with the IC50 value in the database.

human EphB4 = target: T2, human EphB4 (Homo sapiens, UniProt P54760); assay: In vitro EphB4 cell assay (EphB4 phosphorylation ELISA in EphB4-CHO cells); type: cell-based; settings: ephrin-B2 stimulated EphB4 phosphorylation, read-out: Mean IC50 values obtained using Assay B
T2 construct: to generate full-length EphB4 containing a Myc-His tag at the C-terminus; expressed in transfected cells; EphB4-CHO)
T2 sequence (P54760 16-987): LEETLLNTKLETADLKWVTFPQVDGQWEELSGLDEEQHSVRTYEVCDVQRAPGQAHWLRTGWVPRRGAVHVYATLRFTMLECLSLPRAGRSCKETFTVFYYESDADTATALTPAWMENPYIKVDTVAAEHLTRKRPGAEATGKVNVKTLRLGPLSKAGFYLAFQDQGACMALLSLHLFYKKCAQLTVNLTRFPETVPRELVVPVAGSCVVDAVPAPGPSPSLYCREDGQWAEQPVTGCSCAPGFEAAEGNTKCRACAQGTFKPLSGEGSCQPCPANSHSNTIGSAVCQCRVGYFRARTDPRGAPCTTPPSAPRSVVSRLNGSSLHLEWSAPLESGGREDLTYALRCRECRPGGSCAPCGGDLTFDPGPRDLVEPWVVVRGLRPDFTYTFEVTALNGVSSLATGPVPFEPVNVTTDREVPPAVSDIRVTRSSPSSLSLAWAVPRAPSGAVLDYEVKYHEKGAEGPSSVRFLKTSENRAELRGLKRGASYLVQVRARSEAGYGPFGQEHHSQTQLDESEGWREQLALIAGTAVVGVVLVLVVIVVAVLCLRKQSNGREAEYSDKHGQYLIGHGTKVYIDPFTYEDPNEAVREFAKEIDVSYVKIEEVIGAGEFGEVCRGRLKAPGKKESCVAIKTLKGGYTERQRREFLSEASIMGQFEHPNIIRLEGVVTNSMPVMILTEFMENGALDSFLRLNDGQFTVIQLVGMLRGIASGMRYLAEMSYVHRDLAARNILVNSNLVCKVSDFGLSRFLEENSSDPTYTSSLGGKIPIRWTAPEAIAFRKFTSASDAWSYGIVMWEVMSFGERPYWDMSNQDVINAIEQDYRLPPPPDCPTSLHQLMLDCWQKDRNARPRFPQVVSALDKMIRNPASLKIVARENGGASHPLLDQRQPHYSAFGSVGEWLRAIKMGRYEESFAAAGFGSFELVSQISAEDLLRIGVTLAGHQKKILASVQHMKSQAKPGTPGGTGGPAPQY
Method: The assay identifies inhibitors of cellular EphB4 by measuring a decrease in phosphorylation of EphB4 following treatment of cells with compound. The endpoint assay used a sandwich ELISA to detect EphB4 phosphorylation status. Briefly, Myc-tagged EphB4 from treated cell lysate was captured on the ELISA plate via an anti-c-Myc antibody. The phosphorylation status of captured EphB4 was then measured using a generic phosphotyrosine antibody conjugated to HRP via a calorimetric output catalysed by HRP, with level of EphB4 phosphorylation directly proportional to the colour intensity. Absorbance was measured spectrophotometrically at 450 nm.
Full length human EphB4 (Swiss-Prot Acc. No. P54760) was cloned using standard techniques from cDNA prepared from HUVEC using RT-PCR. The cDNA fragment was then sub-cloned into a pcDNA3.1 expression vector containing a Myc-His epitope tag to generate full-length EphB4 containing a Myc-His tag at the C-terminus (Invitrogen Ltd. Paisley, UK). CHO-K1 cells (LGC Promochem, Teddington, Middlesex, UK, Catalogue No. CCL-61) were maintained in HAM's F12 medium (Sigma-Aldrich Company Ltd, Gillingham, Dorset SP8 4XT, Catalogue No. N4888) containing 10% heat-inactivated foetal calf serum (PAA lab GmbH, Pasching, Austria Catalogue No. PAA-A15-043) and 1% glutamax-1 (Invitrogen Ltd., Catalogue No. 35050-038) at 37° C. with 5% CO2. CHO-K1 cells were engineered to stably express the EphB4-Myc-His construct using standard stable transfection techniques, to generate cells hereafter termed EphB4-CHO.
For each assay, 10,000 EphB4-CHO cells were seeded into each well of Costar 96-well tissue-culture plate (Fisher Scientific UK, Loughborough, Leicestershire, UK., Catalogue No. 3598) and cultured overnight in full media. On day 2, the cells were incubated overnight in 90 μl/well of media containing 0.1% Hyclone stripped-serum (Fisher Scientific UK, Catalogue No. SH30068.02). Test compounds were prepared as 10 mM stock solutions in DMSO (Sigma-Aldrich Company Ltd, Gillingham, Dorset SP8 4XT Catalogue No. 154938) and serially diluted with serum-free media to give a range of test concentrations at 10× the required final concentration. A 10 μl aliquot of each compound dilution was transferred to the cell plates in duplicate wells, and the cells incubated for 1 hour at 37° C. Each plate also contained control wells: a maximum signal was created using untreated cells, and minimum signal corresponding to 100% inhibition was created using wells containing a reference compound known to abolish EphB4 activity. […]

[1] = compound preparation: Genesis (aqueous dilution)
[2] = compound preparation: Echo (acoustic dispensing)

| Compound | IC50 (recombinant EphB4; [1]) [nM] | IC50 (human EphB4) [nM] | IC50 (recombinant EphB4; [2]) [nM] |
| --- | --- | --- | --- |
| CN(c1ccnc(Nc2cc(Cl)cc(N3CCOCC3)n2)n1)c1ccc(F)c(Cl)c1F [Example 1, N′-(3-chloro-2,4-difluoro-phenyl)-N-(4-chloro-6-morpholin-4-yl-pyridin-2-yl)-N′-methyl-pyrimidine-2,4-diamine] | 38300 | 354 | – |
| CN(c1ccnc(Nc2cc(N3CCOCC3)nc(N3CCOCC3)c2)n1)c1ccc(F)c(Cl)c1F [Example 2.1, N′-(3-chloro-2,4-difluoro-phenyl)-N-(2,6-dimorpholin-4-ylpyridin-4-yl)-N′-methyl-pyrimidine-2,4-diamine] | 1120 | 8 | – |
| CN(c1ccnc(Nc2cc(N3CCOCC3)cc(N3CCOCC3)n2)n1)c1ccc(F)c(Cl)c1F [Example 2.2, N′-(3-chloro-2,4-difluoro-phenyl)-N-(4,6-dimorpholin-4-ylpyridin-2-yl)-N′-methyl-pyrimidine-2,4-diamine] | 808 | – | – |
| CN(c1ccnc(Nc2cc(Cl)nc(N3CCOCC3)c2)n1)c1ccc(F)c(Cl)c1F [Example 2.3, N′-(3-chloro-2,4-difluoro-phenyl)-N-(2-chloro-6-morpholin-4-yl-pyridin-4-yl)-N′-methyl-pyrimidine-2,4-diamine] | 1780 | – | – |
| CN(c1ccnc(Nc2cc(N3CCOCC3)nc(N3CCOCC3)n2)n1)c1ccc(F)c(Cl)c1F [Example 2.4, N′-(3-chloro-2,4-difluoro-phenyl)-N-(2,6-dimorpholin-4-ylpyrimidin-4-yl)-N′-methyl-pyrimidine-2,4-diamine] | 6270 | – | – |
| Cc1ccc(CO)cc1N(C)c1ccnc(Nc2cc(Cl)cc(N3CCOCC3)n2)n1 [Example 3, [3-[[2-[(4-chloro-6-morpholin-4-yl-pyridin-2-yl)amino]pyrimidin-4-yl]-methyl-amino]-4-methyl-phenyl]methanol] | 198 | 28 | – |
| Cc1ccc(CO)cc1N(C)c1ccnc(Nc2cc(N3CCOCC3)cc(N3CCOCC3)n2)n1 [Example 4.2, [3-[[2-[(4,6-dimorpholin-4-ylpyridin-2-yl)amino]pyrimidin-4-yl]-methyl-amino]-4-methyl-phenyl]methanol] | 456 | 302 | – |
| Cc1ccc(CO)cc1N(C)c1ccnc(Nc2cc(Cl)nc(N3CCOCC3)c2)n1 [Example 4.3, [3-[[2-[(2-chloro-6-morpholin-4-yl-pyridin-4-yl)amino]pyrimidin-4-yl]-methyl-amino]-4-methyl-phenyl]methanol] | 473 | – | – |
| COc1ccc(C)c(N(C)c2ccnc(Nc3cc(N4CCOCC4)nc(N4CCN(C)CC4)c3)n2)c1 [Example 5.1, N4-(5-methoxy-2-methylphenyl)-N4-methyl-N2-(2-(4-methylpiperazin-1-yl)-6-morpholinopyridin-4-yl)pyrimidine-2,4-diamine] | – | – | 2.31 |
| COc1ccc(C)c(N(C)c2ccnc(Nc3cc(N4CCOCC4)nc(N4CCC(O)CC4)c3)n2)c1 [Example 5.2, 1-(4-(4-((5-methoxy-2-methylphenyl)(methyl)amino)pyrimidin-2-ylamino)-6-morpholinopyridin-2-yl)piperidin-4-ol] | – | – | 3.25 |
